# Columns and labels:
# Type in all cases: cell-based
# [1] = test system: Chrysosporium keratinophilum; assay: Agar plate disc-diffusion, antifungal inhibition zone; conditions: Sabouraud's dextrose agar, 72 h, DMSO zone subtracted
# Description: (§1) The agar plate disc-diffusion method was applied. Sterilized filter papers (6 mm in diameter) were wetted with 10 μL of a solution of 6′-(3-chlorophenyl)-2′-ethoxy-3,4′-bipyridine-3′-carbonitrile (4) to be tested, containing […], and the discs were allowed to air dry. The discs were then placed onto the surface of agar plates (nutrient agar for bacteria and Sabouraud's dextrose agar for fungi) seeded with the test organism. Each plate contained 15 mL of the agar medium, previously seeded with 0.2 mL of the broth culture of each organism pregrown for 18 hours. The plates were incubated at 37° C. for 48 h, and 72 h for fungi. The inhibition zones were measured in mm. Discs impregnated with DMSO were used as a control, and its inhibition zone was subtracted from the tested compound actual inhibition zone.
# (§2) The results of the antimicrobial testing can be observed in Tables 1 and 2, below, using ciprofloxacin as a reference.
# Aspergillus flavus = assay: as above; conditions: Sabouraud's dextrose agar, 72 h, DMSO zone subtracted
# Description: as §1, §2
# Staphylococcus aureus = assay: Agar plate disc-diffusion, antibacterial inhibition zone; conditions: Gram positive, nutrient agar, 37° C., 48 h, DMSO zone subtracted
# Description: as §1, §2
# Bacillus Cereus = assay: as above; conditions: Gram positive, nutrient agar, 37° C., 48 h, DMSO zone subtracted
# Description: as §1, §2
# Escherichia coli = assay: as above; conditions: Gram negative, nutrient agar, 37° C., 48 h, DMSO zone subtracted
# Description: as §1, §2
# Pseudomonas aeruginosa = assay: as above; conditions: Gram negative, nutrient agar, 37° C., 48 h, DMSO zone subtracted
# Description: as §1, §2
# [2] = A = concentration of comp. = 10,000 μL
# [3] = B = concentration of comp. = 30.000 μL
# [4] = C = concentration of comp. = 50,000 μL
structure (smiles),measurement,setting,value
"CCOc1nc(-c2cccc(Cl)c2)cc(-c2cccnc2)c1C#N [compound 4, 6′-(3-chlorophenyl)-2′-ethoxy-3,4′-bipyridine-3′-carbonitrile]","inhibition zone, Chrysosporium keratinophilum, A",[1]; [2],24 mm
same,"inhibition zone, Chrysosporium keratinophilum, B",[1]; [3],26 mm
same,"inhibition zone, Chrysosporium keratinophilum, C",[1]; [4],47 mm
same,"inhibition zone, Aspergillus flavus, A",Aspergillus flavus; [2],21 mm
same,"inhibition zone, Aspergillus flavus, B",Aspergillus flavus; [3],25 mm
same,"inhibition zone, Aspergillus flavus, C",Aspergillus flavus; [4],36 mm
same,"inhibition zone, Staphylococcus aureus, A",Staphylococcus aureus; [2],19 mm
same,"inhibition zone, Staphylococcus aureus, B",Staphylococcus aureus; [3],26 mm
same,"inhibition zone, Staphylococcus aureus, C",Staphylococcus aureus; [4],33 mm
same,"inhibition zone, Bacillus Cereus, A",Bacillus Cereus; [2],26 mm
same,"inhibition zone, Bacillus Cereus, B",Bacillus Cereus; [3],28 mm
same,"inhibition zone, Bacillus Cereus, C",Bacillus Cereus; [4],40 mm
same,"inhibition zone, Escherichia coli, A",Escherichia coli; [2],26 mm
same,"inhibition zone, Escherichia coli, B",Escherichia coli; [3],36 mm
same,"inhibition zone, Escherichia coli, C",Escherichia coli; [4],48 mm
same,"inhibition zone, Pseudomonas aeruginosa, A",Pseudomonas aeruginosa; [2],22 mm
same,"inhibition zone, Pseudomonas aeruginosa, B",Pseudomonas aeruginosa; [3],29 mm
same,"inhibition zone, Pseudomonas aeruginosa, C",Pseudomonas aeruginosa; [4],38 mm

# Source: US11926609B1, “6′-(3-chlorophenyl)-2′-ethoxy-3,4′-bipyridine-3′-carbonitrile as antimicrobial compounds” (KING FAISAL UNIVERSITY, priority 2023, dated 2024)
